Measured values reported in patent US10815210B2, “Benzocyclobutane derivatives useful as dual SGLT1 / SGLT2 modulators” (Janssen Pharmaceutica NV, priority 2016, dated 2020).

Legend:
human SGLT1 = biological target: T1, human SGLT1 (Homo sapiens, UniProt P13866); assay: SGLT1 assay: Na-dependent 14C-AMG uptake in CHO-K1 cells stably expressing human SGLT1; type: cell-based; conditions: for IC50: 500 μM AMG, 2 hours at 37° C.
T1 construct: expressed in transfected cells; host or cells: CHO-K1
T1 sequence (P13866 1-664): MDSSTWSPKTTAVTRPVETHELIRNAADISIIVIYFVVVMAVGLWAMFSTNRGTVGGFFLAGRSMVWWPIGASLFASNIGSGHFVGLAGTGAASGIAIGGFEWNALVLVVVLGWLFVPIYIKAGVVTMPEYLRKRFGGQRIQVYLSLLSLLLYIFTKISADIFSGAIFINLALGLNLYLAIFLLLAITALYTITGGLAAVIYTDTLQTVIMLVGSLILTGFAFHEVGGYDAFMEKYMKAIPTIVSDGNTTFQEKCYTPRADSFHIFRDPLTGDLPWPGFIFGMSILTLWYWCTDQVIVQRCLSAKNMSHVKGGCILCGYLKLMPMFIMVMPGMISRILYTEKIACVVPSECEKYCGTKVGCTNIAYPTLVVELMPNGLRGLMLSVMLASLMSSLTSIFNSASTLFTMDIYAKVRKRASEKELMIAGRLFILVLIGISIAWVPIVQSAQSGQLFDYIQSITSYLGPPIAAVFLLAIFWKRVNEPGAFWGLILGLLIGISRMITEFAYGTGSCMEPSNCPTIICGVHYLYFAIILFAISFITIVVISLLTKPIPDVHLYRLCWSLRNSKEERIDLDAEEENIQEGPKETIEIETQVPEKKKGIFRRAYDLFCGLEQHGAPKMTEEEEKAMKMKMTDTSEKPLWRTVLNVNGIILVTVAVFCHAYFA
Procedure, shortened: (§1)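 CHO-K1 cells stably expressing human SGLT1 or SGLT2, pretreated 24 h with 10 mM Na-butyrate, were exposed 10 min to compound (0.001-10 μM) in Na-containing HEPES/Tris buffer pH 7.4. Uptake of ^14C-AMG (500 μM final) ran 2 h at 37° C, then Na-dependent uptake was counted by scintillation.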

human SGLT2 = biological target: T2, human SGLT2 (Homo sapiens, UniProt P31639); assay: SGLT2 assay: Na-dependent 14C-AMG uptake in CHO-K1 cells stably expressing human SGLT2; type: cell-based; conditions: for IC50: 500 μM AMG, 2 hours at 37° C.
T2 construct: expressed in transfected cells; host or cells: CHO-K1
T2 sequence (P31639 1-672): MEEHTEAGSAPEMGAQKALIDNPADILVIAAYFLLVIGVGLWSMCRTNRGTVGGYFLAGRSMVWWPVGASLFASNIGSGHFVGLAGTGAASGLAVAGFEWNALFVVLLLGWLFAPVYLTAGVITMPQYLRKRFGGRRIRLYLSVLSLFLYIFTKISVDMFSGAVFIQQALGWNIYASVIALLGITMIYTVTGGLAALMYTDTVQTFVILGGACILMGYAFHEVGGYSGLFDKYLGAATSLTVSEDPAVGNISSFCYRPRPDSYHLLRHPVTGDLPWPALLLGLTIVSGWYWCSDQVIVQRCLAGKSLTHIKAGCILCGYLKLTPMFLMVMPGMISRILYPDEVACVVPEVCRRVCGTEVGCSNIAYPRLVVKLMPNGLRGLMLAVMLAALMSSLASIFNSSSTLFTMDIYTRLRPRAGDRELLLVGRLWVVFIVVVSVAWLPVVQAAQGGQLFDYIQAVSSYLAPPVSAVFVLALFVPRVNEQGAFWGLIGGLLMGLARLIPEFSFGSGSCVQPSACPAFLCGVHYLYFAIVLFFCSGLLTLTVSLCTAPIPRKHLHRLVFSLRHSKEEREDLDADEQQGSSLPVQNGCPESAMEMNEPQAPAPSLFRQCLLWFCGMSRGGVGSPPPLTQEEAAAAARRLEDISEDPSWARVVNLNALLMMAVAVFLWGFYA
Procedure, shortened: as §1

| SMILES | IC50 (human SGLT1) | IC50 (human SGLT2) | inhibition at 0.3 µM (human SGLT1) | inhibition at 0.03 µM (human SGLT2) |
| --- | --- | --- | --- | --- |
| [2H]C1([2H])Cc2ccc(Cc3cc([C@@H]4O[C@H](CO)[C@@H](O)[C@H](O)[C@H]4O)ccc3C)cc21 [Compound 65, (2S,3R,4R,5S,6R)-2-[3-[(8,8-dideuterium)bicyclo[4.2.0]octa-1(6),2,4-trien-3-ylmethyl]-4-methylphenyl]-6-(hydroxymethyl)oxane-3,4,5-triol] | 24 nM | 3 nM |  |  |
| [2H]C1([2H])Cc2ccc(Cc3cc([C@@H]4O[C@H](CO)[C@@H](O)[C@H](O)[C@H]4O)c(OC)cc3CC)cc21 [Compound 69, (2S,3R,4R,5S,6R)-2-(5-[(8,8-Hz)bicyclo[4.2.0]octa-1(6),2,4-trien-3-ylmethyl]-4-ethyl-2-methoxyphenyl)-6-(hydroxymethyl)oxane-3,4,5-triol] | 50 nM | 5 nM |  |  |
| [2H]C1([2H])Cc2ccc(Cc3cc([C@@H]4O[C@H](CO)[C@@H](O)[C@H](O)[C@H]4O)ccc3CC)cc21 [Compound 66, (2S,3R,4R,5S,6R)-2-(3-((2,2-dideuterium-1,2-dihydrocyclobutabenzen-4-yl)methyl)-4-ethylphenyl)-6-(hydroxymethyl)-tetrahydro-2H-pyran-3,4,5-triol] | 32 nM | 3 nM |  |  |
| Cc1cc(OC(F)(F)F)c([C@@H]2O[C@H](CO)[C@@H](O)[C@H](O)[C@H]2O)cc1Cc1ccc2c(c1)CC2 [Compound 33, (2S,3R,4R,5S,6R)-2-(5-((1,2-dihydrocyclobutabenzen-4-yl)methyl)-4-methyl-2-(trifluoromethoxy)phenyl)-6-(hydroxymethyl)-tetrahydro-2H-pyran-3,4,5-triol] |  |  | 23% | 57% |
| OC[C@H]1O[C@@H](c2cc(Cc3ccc4c(c3)CC4)c(Cl)cc2OC(F)F)[C@H](O)[C@@H](O)[C@@H]1O [Compound 37, (2S,3R,4R,5S,6R)-2-(4-chloro-2-(difluoromethoxy)-5-((1,2-dihydrocyclobutabenzen-4-yl)methyl)phenyl)-6-(hydroxymethyl)-tetrahydro-2H-pyran-3,4,5-triol] |  |  | 20% | 84% |
| Cc1ccc([C@@H]2O[C@H](CO)[C@@H](F)[C@H](O)[C@H]2O)cc1Cc1ccc2c(c1)CC2 [Compound 126] | 52 nM | 4 nM |  |  |
| CCc1cc(O)c([C@@H]2O[C@H](CO)[C@@H](O)[C@H](O)[C@H]2O)cc1Cc1ccc2c(c1)CC2 [Compound 12] | 3 nM | 2 nM |  |  |
| [2H]C1([2H])Cc2ccc(Cc3cc([C@@H]4O[C@H](CO)[C@@H](O)[C@H](O)[C@H]4O)ccc3OC)cc21 (single isomer, unassigned) [Compound 64] | 93 nM | 4 nM |  |  |
| N#Cc1ccc([C@@H]2O[C@H](CO)[C@@H](O)[C@H](O)[C@H]2O)cc1Cc1ccc2c(c1)CC2 [Compound 16, 2-((1,2-dihydrocyclobutabenzen-4-yl)methyl)-4-((2S,3R,4R,5S,6R)-3,4,5-trihydroxy-6-(hydroxymethyl)-tetrahydro-2H-pyran-2-yl)benzonitrile] |  |  | 0% | 43% |
| [2H]C([2H])(c1ccc2c(c1)CC2)c1cc([C@@H]2O[C@H](CO)[C@@H](O)[C@H](O)[C@H]2O)c(OC)cc1OC (single isomer, unassigned) [Compound 59] | 140 nM | 3 nM |  |  |
| [2H]C1([2H])Cc2cc(Cc3cc([C@@H]4O[C@H](CO)[C@@H](O)[C@H](O)[C@H]4O)c(OC)cc3Cl)ccc21 [Compound 83, (2S,3R,4R,5S,6R)-2-(5-{[(7,7-dideuterium)bicyclo[4.2.0]octa-1(6),2,4-trien-3-yl]methyl}-4-chloro-2-methoxyphenyl)-6-(hydroxymethyl)oxane-3,4,5-triol] | 64 nM | 1 nM |  |  |
| [2H]C1([2H])Cc2ccc(Cc3cc([C@@H]4O[C@H](CO)[C@@H](O)[C@H](O)[C@H]4O)c(F)cc3CC)cc21 [Compound 73, (2S,3R,4R,5S,6R)-2-(5-((2,2-dideuterium-1,2-dihydrocyclobutabenzen-4-yl)methyl)-4-ethyl-2-fluorophenyl)-6-(hydroxymethyl)-tetrahydro-2H-pyran-3,4,5-triol] | 16 nM | 3 nM |  |  |
| [2H]C1([2H])c2ccc(Cc3cc([C@@H]4O[C@H](CO)[C@@H](O)[C@H](O)[C@H]4O)ccc3Cl)cc2C1([2H])[2H] [Compound 123] | 80 nM | 1 nM |  |  |
| Cc1ccc([C@@H]2O[C@H](CO)[C@@H](O)[C@H](O)[C@H]2O)cc1Cc1ccc2c(c1)CC2 [Compound 1, (2S,3R,4R,5S,6R)-2-(3-((1,2-dihydrocyclobutabenzen-4-yl)methyl)-4-methylphenyl)-6-(hydroxymethyl)-tetrahydro-2H-pyran-3,4,5-triol] | 33 nM | 1 nM |  |  |
| [2H]C1([2H])Cc2cc(Cc3cc([C@@H]4O[C@H](CO)[C@@H](O)[C@H](O)[C@H]4O)ccc3OC)ccc21 (single isomer, unassigned) [Compound 82] | 30 nM | 8 nM |  |  |
| CCOc1cc(CC)c(Cc2ccc3c(c2)CC3)cc1[C@@H]1O[C@H](CO)[C@@H](O)[C@H](O)[C@H]1O [Compound 105] | 32 nM | 1 nM |  |  |
| CCc1cc(F)c([C@@H]2O[C@H](CO)[C@@H](O)[C@H](O)[C@H]2O)cc1Cc1ccc2c(c1)CC2 [Compound 32, (2S,3R,4R,5S,6R)-2-(5-((1,2-dihydrocyclobutabenzen-4-yl)methyl)-4-ethyl-2-fluorophenyl)-6-(hydroxymethyl)-tetrahydro-2H-pyran-3,4,5-triol] | 10 nM | 3 nM |  |  |
| OC[C@H]1O[C@@H](c2cccc(Cc3ccc4c(c3)CC4)c2)[C@H](O)[C@@H](O)[C@@H]1O [Compound 24, (2S,3R,4R,5S,6R)-2-(3-((1,2-dihydrocyclobutabenzen-4-yl)methyl)phenyl)-6-(hydroxymethyl)-tetrahydro-2H-pyran-3,4,5-triol] |  |  | 5% | 23% |
| CCc1cc(OC(F)F)c([C@@H]2O[C@H](CO)[C@@H](O)[C@H](O)[C@H]2O)cc1Cc1ccc2c(c1)CC2 [Compound 122] |  |  | 53% | 55.5% |
| Cc1ccc([C@@H]2O[C@H](CO)C(F)(F)[C@H](O)[C@H]2O)cc1Cc1ccc2c(c1)CC2 [Compound 91, (2S,3R,4R,6R)-2-(3-(bicyclo[4.2.0]octa-1(6),2,4-trien-3-ylmethyl)-4-methylphenyl)-5,5-difluoro-6-(hydroxymethyl)tetrahydro-2H-pyran-3,4-diol] | 49 nM | 1 nM |  |  |
| OC[C@H]1O[C@@H](c2cc(Cc3ccc4c(c3)CC4)c(Cl)cc2O)[C@H](O)[C@@H](O)[C@@H]1F [Compound 129] | 4 nM | 1 nM |  |  |
| COc1cc(C)c(Cc2ccc3c(c2)CC3)cc1[C@@H]1O[C@H](CO)C(F)(F)[C@H](O)[C@H]1O [Compound 93, (2S,3R,4R,6R)-2-(5-(bicyclo[4.2.0]octa-1(6),2,4-trien-3-ylmethyl)-2-methoxy-4-methylphenyl)-5,5-difluoro-6-(hydroxymethyl)tetrahydro-2H-pyran-3,4-diol] | 95 nM | 3 nM |  |  |
| [2H]C1([2H])Cc2ccc(Cc3cc([C@@H]4O[C@H](CO)[C@@H](O)[C@H](O)[C@H]4O)c(OC)cc3OC)cc21 (single isomer, unassigned) [Compound 68] | 41 nM | 2 nM |  |  |
| OC[C@H]1O[C@@H](c2cc(Cc3ccc4c(c3)CC4)c(C3CC3)cc2O)[C@H](O)[C@@H](O)[C@@H]1O [Compound 14, (2S,3R,4R,5S,6R)-2-(5-(bicyclo[4.2.0]octa-1(6),2,4-trien-3-ylmethyl)-4-cyclopropyl-2-hydroxyphenyl)-6-(hydroxymethyl)oxane-3,4,5-triol] | 3 nM | 6 nM |  |  |
